Data reported in patent US20240158370A1, “CK1 alpha AND DUAL CK1 alpha / GSPT1 DEGRADING COMPOUNDS” (Innovo Therapeutics, Inc., priority 2022, published 2024).

How the values were obtained:
GSPT1 = GSPT1 (Homo sapiens, UniProt P15170+Q96SW2); assay: HiBiT degradation assay, GSPT1, Procedure A; type: cell-based; design: HiBit-GSPT1 KI HEK293(LgBit) Cells; host or cells: HEK293(LgBit) knock-in cells; conditions: six hours incubation
Method in brief: (§1)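 Luminescence from HiBiT lytic detection, read after 20 min shaking, gave DC50 and Ymin by 4-parameter fit. Before that, cells (1×10^6 cells/ml, DMEM+10% FBS) sat 6 h at 37° C on 10-point compound series (10 μM–0.005 μM, 0.1% DMSO).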

CK1α = biological target: T1, CK1α (Homo sapiens, UniProt P48729+Q96SW2); assay: HiBiT degradation assay, CK1α, Procedure A; type: cell-based; conditions: six hours incubation
T1 construct: CSNK1A1-HiBit KI HEK293(LgBit) Cells; host or cells: HEK293(LgBit) knock-in cells
Method in brief: as §1

T1 sequence (P48729 whole entry): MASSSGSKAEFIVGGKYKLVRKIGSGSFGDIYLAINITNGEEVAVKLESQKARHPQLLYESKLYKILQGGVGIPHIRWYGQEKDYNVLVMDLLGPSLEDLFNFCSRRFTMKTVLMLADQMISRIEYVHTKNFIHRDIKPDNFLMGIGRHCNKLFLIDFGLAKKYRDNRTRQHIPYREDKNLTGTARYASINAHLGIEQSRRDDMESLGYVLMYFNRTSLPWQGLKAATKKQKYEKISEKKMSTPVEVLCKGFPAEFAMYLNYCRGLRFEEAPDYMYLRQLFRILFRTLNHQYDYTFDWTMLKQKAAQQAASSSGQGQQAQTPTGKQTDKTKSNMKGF
T1 sequence (Q96SW2 whole entry): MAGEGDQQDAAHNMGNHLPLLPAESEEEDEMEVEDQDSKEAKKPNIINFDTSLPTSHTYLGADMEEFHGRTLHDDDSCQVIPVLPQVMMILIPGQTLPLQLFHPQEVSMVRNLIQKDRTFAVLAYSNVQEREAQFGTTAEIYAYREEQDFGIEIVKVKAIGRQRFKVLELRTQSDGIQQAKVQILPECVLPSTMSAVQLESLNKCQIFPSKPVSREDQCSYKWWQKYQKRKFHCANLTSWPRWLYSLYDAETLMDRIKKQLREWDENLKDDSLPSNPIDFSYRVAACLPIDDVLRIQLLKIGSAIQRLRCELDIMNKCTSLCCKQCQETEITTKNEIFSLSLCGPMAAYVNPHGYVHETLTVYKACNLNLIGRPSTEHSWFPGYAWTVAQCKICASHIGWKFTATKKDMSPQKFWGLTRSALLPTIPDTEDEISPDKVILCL
T1 sequence (Q16531 whole entry partner): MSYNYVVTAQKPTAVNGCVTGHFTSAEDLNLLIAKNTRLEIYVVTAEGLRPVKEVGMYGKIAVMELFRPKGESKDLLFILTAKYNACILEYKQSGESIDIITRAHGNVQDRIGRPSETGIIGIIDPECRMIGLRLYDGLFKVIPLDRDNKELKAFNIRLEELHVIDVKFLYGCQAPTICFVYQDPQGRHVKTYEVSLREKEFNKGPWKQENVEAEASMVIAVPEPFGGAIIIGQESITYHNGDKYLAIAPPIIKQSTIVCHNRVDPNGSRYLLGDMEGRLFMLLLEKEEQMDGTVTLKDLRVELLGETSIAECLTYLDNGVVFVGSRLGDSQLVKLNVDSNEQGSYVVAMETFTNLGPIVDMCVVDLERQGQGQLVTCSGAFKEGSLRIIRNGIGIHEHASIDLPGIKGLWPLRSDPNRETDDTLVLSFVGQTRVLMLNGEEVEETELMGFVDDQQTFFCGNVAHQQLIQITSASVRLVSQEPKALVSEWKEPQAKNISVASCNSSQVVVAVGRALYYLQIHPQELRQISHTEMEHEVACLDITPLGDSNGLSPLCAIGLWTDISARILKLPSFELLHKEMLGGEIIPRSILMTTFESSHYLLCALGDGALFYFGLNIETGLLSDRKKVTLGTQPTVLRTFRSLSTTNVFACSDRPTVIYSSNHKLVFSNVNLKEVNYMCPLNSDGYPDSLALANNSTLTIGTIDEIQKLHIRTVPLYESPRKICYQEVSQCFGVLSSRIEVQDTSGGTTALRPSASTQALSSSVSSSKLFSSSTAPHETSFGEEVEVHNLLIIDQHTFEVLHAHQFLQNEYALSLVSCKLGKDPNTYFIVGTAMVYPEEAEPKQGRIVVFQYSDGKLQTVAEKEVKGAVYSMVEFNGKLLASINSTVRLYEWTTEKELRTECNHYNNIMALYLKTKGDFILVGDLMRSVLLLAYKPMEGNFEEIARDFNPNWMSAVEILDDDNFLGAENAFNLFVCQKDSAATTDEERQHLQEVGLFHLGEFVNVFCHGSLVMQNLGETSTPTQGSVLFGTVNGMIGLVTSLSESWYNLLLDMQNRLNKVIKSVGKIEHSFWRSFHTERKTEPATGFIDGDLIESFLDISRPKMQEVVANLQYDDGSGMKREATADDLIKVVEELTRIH
Chain of GSPT1 (P15170 whole entry): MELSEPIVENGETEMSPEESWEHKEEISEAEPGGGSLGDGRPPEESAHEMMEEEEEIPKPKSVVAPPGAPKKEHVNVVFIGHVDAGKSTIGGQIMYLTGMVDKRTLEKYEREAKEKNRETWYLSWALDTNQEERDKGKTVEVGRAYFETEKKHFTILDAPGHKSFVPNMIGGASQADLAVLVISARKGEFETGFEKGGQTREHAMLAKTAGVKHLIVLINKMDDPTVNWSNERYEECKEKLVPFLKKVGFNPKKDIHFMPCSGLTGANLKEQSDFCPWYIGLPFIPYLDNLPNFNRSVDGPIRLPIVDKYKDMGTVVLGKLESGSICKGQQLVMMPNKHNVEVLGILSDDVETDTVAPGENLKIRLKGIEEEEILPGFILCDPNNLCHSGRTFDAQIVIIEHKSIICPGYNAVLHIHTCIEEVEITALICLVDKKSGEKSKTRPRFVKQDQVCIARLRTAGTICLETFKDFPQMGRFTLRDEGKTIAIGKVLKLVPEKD
Chain of GSPT1 (Q96SW2 whole entry): as the sequence (Q96SW2 whole entry) above
Chain of GSPT1 (Q16531 whole entry partner): as the sequence (Q16531 whole entry partner) above

Structure (SMILES) | DC50 (GSPT1) [nM] | GSPT1 Ymin (GSPT1) | CK1α Ymin (CK1α) | DC50 (CK1α) [nM]
Cc1ccc(Cl)c(-c2c(-c3ccc4c(c3)CN(C3CCC(=O)NC3=O)C4=O)ncn2C)c1 (stereo not shown) [Example 199] | < 25 | F (F = >75-100% remaining) | D (D = >10- 25% remaining) | < 25
Cc1cc(-c2c(-c3ccc4c(c3)CN(C3CCC(=O)NC3=O)C4=O)ncn2C)ccc1Cl (stereo not shown) [Example 200] | < 25 | E (E = >25-75% remaining) | D (D = >10- 25% remaining) | < 25
Cc1cc(Cl)cc(-c2c(-c3ccc4c(c3)CN(C3CCC(=O)NC3=O)C4=O)ncn2C)c1 (stereo not shown) [Example 201] | ≥ 25 | F (F = >75-100% remaining) | E (E = >25-75% remaining) | < 25
Cn1cnc(-c2ccc3c(c2)CN(C2CCC(=O)NC2=O)C3=O)c1-c1cccc(C(F)F)c1 (stereo not shown) [Example 202] | ≥ 25 | F (F = >75-100% remaining) | D (D = >10- 25% remaining) | < 25
Cn1cnc(-c2ccc3c(c2)CN(C2CCC(=O)NC2=O)C3=O)c1-c1ccc(C(F)F)cc1 (stereo not shown) [Example 203] | ≥ 25 | E (E = >25-75% remaining) | D (D = >10- 25% remaining) | < 25
Cn1cnc(-c2ccc3c(c2)CN(C2CCC(=O)NC2=O)C3=O)c1-c1cc(F)cc(Cl)c1 (stereo not shown) [Example 204] | ≥ 25 | F (F = >75-100% remaining) | E (E = >25-75% remaining) | < 25
O=C1CCC(N2Cc3cc(-c4cncn4-c4ccccc4)ccc3C2=O)C(=O)N1 (stereo not shown) [Example 205, 3-(1-Oxo-5-(1-phenyl-1H-imidazol-5-yl)isoindolin-2-yl)piperidine-2,6-dione] | ≥ 25 | F (F = >75-100% remaining) | E (E = >25-75% remaining) | < 25
O=C1CCC(N2Cc3cc(-c4conc4-c4ccccc4)ccc3C2=O)C(=O)N1 (stereo not shown) [Example 206, 3-(1-Oxo-5-(3-phenylisoxazol-4-yl)isoindolin-2-yl)piperidine-2,6-dione] | ≥ 25 | F (F = >75-100% remaining) | E (E = >25-75% remaining) | ≥ 25
[2H]C([2H])([2H])n1ncc(-c2ccc3c(c2)CN(C2CCC(=O)NC2=O)C3=O)c1-c1ccccc1 (stereo not shown) [Example 207, 3-(5-(1-(Methyl-d3)-5-phenyl-1H-pyrazol-4-yl)-1-oxoisoindolin-2-yl)piperidine-2,6-dione] | ≥ 25 | F (F = >75-100% remaining) | D (D = >10- 25% remaining) | < 25
O=C1CCC(N2Cc3cc(-c4cnn(CC(F)(F)F)c4-c4ccccc4)ccc3C2=O)C(=O)N1 (stereo not shown) [Example 208, 3-(1-Oxo-5-(5-phenyl-1-(2,2,2-trifluoroethyl)-1H-pyrazol-4-yl)isoindolin-2-yl)piperidine-2,6-dione] | ≥ 25 | F (F = >75-100% remaining) | D (D = >10- 25% remaining) | < 25
Cn1cc(-c2ccc3c(c2)CN(C2CCC(=O)NC2=O)C3=O)nc1-c1ccc(C(F)(F)F)cc1 (stereo not shown) [Example 209, 3-(5-(1-methyl-2-(4-(trifluoromethyl)phenyl)-1H-imidazol-4-yl)-1-oxoisoindolin-2-yl)piperidine-2,6-dione] | ≥ 25 | F (F = >75-100% remaining) | C (C = 0-10% remaining) | < 25
O=C1CCC(N2Cc3cc(-c4cc(-c5ccccc5)[nH]n4)ccc3C2=O)C(=O)N1 (stereo not shown) [Example 210, 3-(1-Oxo-5-(5-phenyl-1H-pyrazol-3-yl)isoindolin-2-yl)piperidine-2,6-dione] | ≥ 25 | F (F = >75-100% remaining) | D (D = >10- 25% remaining) | < 25
Cc1c(-c2ccc3c(c2)CN(C2CCC(=O)NC2=O)C3=O)nn(C)c1-c1ccccc1 (stereo not shown) [Example 211, 3-(5-(1,4-Dimethyl-5-phenyl-1H-pyrazol-3-yl)-1-oxoisoindolin-2-yl)piperidine-2,6-dione] | ≥ 25 | F (F = >75-100% remaining) | C (C = 0-10% remaining) | < 25
Cc1cc(-c2c(-c3ccc4c(c3)CN(C3CCC(=O)NC3=O)C4=O)cnn2C)c(C)s1 (stereo not shown) [Example 213] | ≥ 25 | F (F = >75-100% remaining) | E (E = >25-75% remaining) | < 25
Cn1ncc(-c2ccc3c(c2)CN(C2CCC(=O)NC2=O)C3=O)c1-c1ccc(CN2CCOCC2)cc1 (stereo not shown) [Example 214] | ≥ 25 | F (F = >75-100% remaining) | E (E = >25-75% remaining) | < 25
Cc1ccc(-c2c(-c3ccc4c(c3)CN(C3CCC(=O)NC3=O)C4=O)cnn2C)s1 (stereo not shown) [Example 215] | ≥ 25 | F (F = >75-100% remaining) | D (D = >10- 25% remaining) | < 25
Cn1ncc(-c2ccc3c(c2)CN(C2CCC(=O)NC2=O)C3=O)c1-c1ccc(Cl)cc1 (stereo not shown) [Example 216] | ≥ 25 | F (F = >75-100% remaining) | E (E = >25-75% remaining) | < 25

Structure (SMILES) | DC50 (GSPT1) [nM] | GSPT1 Ymin (GSPT1) | CK1α Ymin (CK1α) | DC50 (CK1α) [nM]
CN1CCN(c2ccc(-c3c(-c4ccc5c(c4)CN(C4CCC(=O)NC4=O)C5=O)cnn3C)cc2)CC1 (stereo not shown) [Example 217] | ≥ 25 | F (F = >75-100% remaining) | D (D = >10- 25% remaining) | < 25
Cn1ncc(-c2ccc3c(c2)CN(C2CCC(=O)NC2=O)C3=O)c1-c1ccc2[nH]ccc2c1 (stereo not shown) [Example 218] | ≥ 25 | F (F = >75-100% remaining) | D (D = >10- 25% remaining) | ≥ 25
Cn1ncc(-c2ccc3c(c2)CN(C2CCC(=O)NC2=O)C3=O)c1-c1cccc(O)c1 (stereo not shown) [Example 219] | ≥ 25 | F (F = >75-100% remaining) | C (C = 0-10% remaining) | < 25
Cn1ncc(-c2ccc3c(c2)CN(C2CCC(=O)NC2=O)C3=O)c1-c1ccc(OCCCN2CCOCC2)cc1 (stereo not shown) [Example 220] | ≥ 25 | F (F = >75-100% remaining) | E (E = >25-75% remaining) | < 25
Cn1ncc(-c2ccc3c(c2)CN(C2CCC(=O)NC2=O)C3=O)c1-c1ccc(S(C)(=O)=O)cc1 (stereo not shown) [Example 221] | ≥ 25 | F (F = >75-100% remaining) | E (E = >25-75% remaining) | ≥ 25
COc1ccc(-c2c(-c3ccc4c(c3)CN(C3CCC(=O)NC3=O)C4=O)cnn2C)cc1O (stereo not shown) [Example 222] | ≥ 25 | F (F = >75-100% remaining) | C (C = 0-10% remaining) | < 25
Cn1ncc(-c2ccc3c(c2)CN(C2CCC(=O)NC2=O)C3=O)c1-c1ccc(C#N)cc1F (stereo not shown) [Example 225] | ≥ 25 | F (F = >75-100% remaining) | E (E = >25-75% remaining) | ≥ 25
Cn1cnc(-c2ccc3c(c2)CN(C2CCC(=O)NC2=O)C3=O)c1-c1ccsc1 (stereo not shown) [Example 226] | < 25 | E (E = >25-75% remaining) | C (C = 0-10% remaining) | < 25
Cc1ccc(-c2c(-c3ccc4c(c3)CN(C3CCC(=O)NC3=O)C4=O)ncn2C)cc1 (stereo not shown) [Example 227] | < 25 | E (E = >25-75% remaining) | D (D = >10- 25% remaining) | < 25
Cn1cnc(-c2ccc3c(c2)CN(C2CCC(=O)NC2=O)C3=O)c1-c1cccc(O)c1 (stereo not shown) [Example 228] | ≥ 25 | D (D = >10- 25% remaining) | C (C = 0-10% remaining) | < 25
Cc1ccc(-c2c(-c3ccc4c(c3)CN(C3CCC(=O)NC3=O)C4=O)ncn2C)s1 (stereo not shown) [Example 229] | < 25 | E (E = >25-75% remaining) | C (C = 0-10% remaining) | < 25
Cc1csc(-c2c(-c3ccc4c(c3)CN(C3CCC(=O)NC3=O)C4=O)ncn2C)c1 (stereo not shown) [Example 230] | < 25 | E (E = >25-75% remaining) | C (C = 0-10% remaining) | < 25
Cc1sccc1-c1c(-c2ccc3c(c2)CN(C2CCC(=O)NC2=O)C3=O)ncn1C (stereo not shown) [Example 231] | ≥ 25 | F (F = >75-100% remaining) | D (D = >10- 25% remaining) | < 25
Cn1cnc(-c2ccc3c(c2)CN(C2CCC(=O)NC2=O)C3=O)c1-c1cccc(C#N)c1 (stereo not shown) [Example 232] | ≥ 25 | F (F = >75-100% remaining) | D (D = >10- 25% remaining) | < 25
Cn1cnc(-c2ccc3c(c2)CN(C2CCC(=O)NC2=O)C3=O)c1-c1ccccc1C#N (stereo not shown) [Example 233] | ≥ 25 | F (F = >75-100% remaining) | D (D = >10- 25% remaining) | < 25
Cc1ccc(C)c(-c2c(-c3ccc4c(c3)CN(C3CCC(=O)NC3=O)C4=O)ncn2C)c1 (stereo not shown) [Example 234] | ≥ 25 | F (F = >75-100% remaining) | D (D = >10- 25% remaining) | < 25
COc1ccccc1-c1c(-c2ccc3c(c2)CN(C2CCC(=O)NC2=O)C3=O)ncn1C (stereo not shown) [Example 235] | ≥ 25 | F (F = >75-100% remaining) | D (D = >10- 25% remaining) | < 25
